Where two headings read alike, the source gives them in different places.
Tests used:
[1] = PK/PD study of Formulation A s.c. in SD rats; conditions: for absorption lag time after s.c. administration: Formulation A 0.744 ml/kg s.c.
Description: (§1) All samples were frozen and stored at −70° C. on receipt. The samples were analyzed by liquid chromatography with tandem mass spectral detection.

[2] = PK/PD study of Formulation A s.c. in mini pigs; conditions: Formulation A 0.132 ml/kg s.c.
Description: as §1

[3] = rat, in vivo, sc; for time by which cleared: SD
Description: as §1

[4] = cited from earlier work
[5] = Degradation of FK506 in a combination of the two APIs; type: physicochemical; conditions: combination of the two APIs in solution, earlier attempts; stated as 'may be'
[6] = pig, in vivo, sc
Description: as §1

| Molecule | absorption lag time after s.c. administration [1] | blood level at 3 hours [2] | clearance from blood [2] | time by which cleared [3] [h] | plasma level at 3 hours [3] | solubility in water [4] | FK506 degraded [5] | time of peak plasma concentration ([1]; Formulation A 0.744 ml/kg s.c. (AMD3100 17.856 mg/kg, FK506 0.372 mg/kg), n=12) [h] | blood level at 3 hours [6] |
| --- | --- | --- | --- | --- | --- | --- | --- | --- | --- |
| c1cc(CN2CCCNCCNCCCNCC2)ccc1CN1CCCNCCNCCCNCC1 [AMD3100] | no observable lag time | remained at high levels | cleared rapidly after 12 hours | ≤ 12 | remained at high levels | – | – | – | – |
| AMD3100 octahydrochloride hydrate | – | – | – | – | – | 22 mg/mL | – | – | – |
| C=CC[C@@H]1/C=C(\C)C[C@H](C)C[C@H](OC)[C@H]2O[C@@](O)(C(=O)C(=O)N3CCCC[C@H]3C(=O)O[C@H](/C(C)=C/[C@@H]3CC[C@@H](O)[C@H](OC)C3)[C@H](C)[C@@H](O)CC1=O)[C@H](C)C[C@@H]2OC [FK506, Tacrolimus] | no observable lag time | – | cleared rapidly after 12 hours | ≤ 12 | remained at high levels | poor solubility in water | About 50% | 1 | remained at high levels |
